Patent US7285543B2, “Purine inhibitors of fructose-1,6-bisphosphatase” (Metabasis Therapeutics, Inc., priority 1997, dated 2007)

Experiments:
rat liver FBPase = biological target: T1, rat liver FBPase (Rattus norvegicus, UniProt P19112); assay: In vitro inhibition of rat liver FBPase; format: biochemical
T1 construct: made in house; host or cells: E. coli BL21
T1 sequence (P19112 2-363 limits assumed): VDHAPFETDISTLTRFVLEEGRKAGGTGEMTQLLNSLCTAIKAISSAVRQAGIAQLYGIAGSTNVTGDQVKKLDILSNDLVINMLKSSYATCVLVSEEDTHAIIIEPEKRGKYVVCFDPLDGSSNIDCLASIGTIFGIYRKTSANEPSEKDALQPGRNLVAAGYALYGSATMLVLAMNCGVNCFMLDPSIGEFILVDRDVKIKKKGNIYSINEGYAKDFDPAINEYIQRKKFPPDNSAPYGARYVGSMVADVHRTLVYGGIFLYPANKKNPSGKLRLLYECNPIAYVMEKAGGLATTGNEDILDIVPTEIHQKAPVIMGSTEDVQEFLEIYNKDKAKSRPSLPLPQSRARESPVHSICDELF
Method: (§1) Mouse liver FBPase was obtained by homogenizing freshly isolated mouse liver in 100 mM Tris-HCl buffer, pH 7.4, containing 1 mM EGTA, and 10% glycerol. […] This fraction was redissolved in the homogenization buffer and desalted on a PD-10 gel filtration column (Biorad) eluted with same. This partially purified fraction was used for enzyme assays. Both rat liver and mouse liver FBPase were assayed as described for human liver FBPase.

human liver FBPase = biological target: T2, human liver FBPase (Homo sapiens, UniProt P09467); assay: Inhibition of human liver FBPase (coupled spectrophotometric assay); format: biochemical
T2 construct: made in house; host or cells: E. coli BL21
T2 sequence (P09467 2-338 limits assumed): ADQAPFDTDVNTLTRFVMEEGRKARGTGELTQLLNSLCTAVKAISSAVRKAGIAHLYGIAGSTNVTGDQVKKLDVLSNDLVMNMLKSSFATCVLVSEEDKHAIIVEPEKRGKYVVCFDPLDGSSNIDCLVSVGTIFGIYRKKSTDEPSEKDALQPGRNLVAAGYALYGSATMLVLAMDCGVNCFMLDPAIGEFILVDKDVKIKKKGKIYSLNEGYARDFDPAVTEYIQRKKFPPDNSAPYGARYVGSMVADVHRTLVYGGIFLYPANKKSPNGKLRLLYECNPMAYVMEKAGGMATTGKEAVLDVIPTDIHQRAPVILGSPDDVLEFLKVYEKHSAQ

[1] = biological target: T3, Adenylate Kinase (rabbit muscle) (Oryctolagus cuniculus, UniProt P00569); assay: AMP site/enzyme selectivity: adenylate kinase; format: biochemical; details: selectivity table; read-out: Adenylate Kinase (inh.)
T3 construct: purchased Sigma
T3 sequence (P00569 1-194): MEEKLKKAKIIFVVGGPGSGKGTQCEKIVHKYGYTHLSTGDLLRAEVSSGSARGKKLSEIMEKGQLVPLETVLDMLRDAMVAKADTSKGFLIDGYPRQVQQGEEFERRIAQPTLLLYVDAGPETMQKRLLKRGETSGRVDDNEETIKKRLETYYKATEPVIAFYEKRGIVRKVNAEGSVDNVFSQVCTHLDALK

[2] = biological target: T4, Glycogen Phosphorylase (rabbit muscle) (Oryctolagus cuniculus, UniProt P00489); assay: AMP site/enzyme selectivity: glycogen phosphorylase
T4 sequence (P00489 2-843 limits assumed): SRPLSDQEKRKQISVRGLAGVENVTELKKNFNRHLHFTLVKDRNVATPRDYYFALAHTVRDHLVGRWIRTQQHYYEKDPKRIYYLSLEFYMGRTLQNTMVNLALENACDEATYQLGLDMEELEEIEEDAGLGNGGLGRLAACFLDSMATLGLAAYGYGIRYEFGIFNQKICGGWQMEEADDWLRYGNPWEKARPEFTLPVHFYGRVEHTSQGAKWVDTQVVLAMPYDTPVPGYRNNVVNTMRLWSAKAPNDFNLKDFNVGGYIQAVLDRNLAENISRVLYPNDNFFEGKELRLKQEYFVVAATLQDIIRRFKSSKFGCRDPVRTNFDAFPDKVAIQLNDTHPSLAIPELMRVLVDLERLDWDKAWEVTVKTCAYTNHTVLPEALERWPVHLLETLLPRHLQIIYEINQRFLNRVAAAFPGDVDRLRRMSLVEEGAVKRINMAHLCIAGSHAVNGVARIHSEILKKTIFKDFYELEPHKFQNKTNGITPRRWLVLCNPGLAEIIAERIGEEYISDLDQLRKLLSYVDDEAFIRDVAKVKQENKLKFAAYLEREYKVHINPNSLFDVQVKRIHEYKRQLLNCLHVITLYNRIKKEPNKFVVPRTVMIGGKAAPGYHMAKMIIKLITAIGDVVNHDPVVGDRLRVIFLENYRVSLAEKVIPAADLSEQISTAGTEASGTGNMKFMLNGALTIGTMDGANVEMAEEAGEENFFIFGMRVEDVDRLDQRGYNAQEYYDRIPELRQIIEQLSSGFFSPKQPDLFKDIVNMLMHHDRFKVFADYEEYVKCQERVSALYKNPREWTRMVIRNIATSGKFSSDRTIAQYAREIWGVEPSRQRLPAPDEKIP
Method: To determine the selectivity of compounds towards FBPase, effects of FBPase inhibitors on 5 key AMP binding enzymes were measured using the assays described below: • Adenosine Kinase: Human adenosine kinase was purified from an E. coli expression system as described by Spychala et al. (Spychala, J., Datta, N. S., Takabayashi, K., Datta, M., Fox, I. H., Gribbin, T., and Mitchell, B. S. Proc. Natl. Acad. Sci. USA 1996, 93, 1232-1237). Activity was measured essentially as described by Yamada et al. (Yamada, Y., Goto, H., Ogasawara, N. Biochim. Biophys. Acta 1988, 660, 36-43.) with a few minor modifications. Assay mixtures contained 50 mM TRIS-maleate buffer, pH 7.0, 0.1% BSA, 1 mM ATP 1 mM MgCl2, 1.0 μM [U-^14C] adenosine (400-600 mCi/mmol) and varying duplicate concentrations of inhibitor. ^14C-AMP was separated from unreacted ^14C-adenosine by absorption to anion exchange paper (Whatman) and quantified by scintillation counting. • Adenosine Monophosphate Deaminase: Porcine heart AMPDA was purified essentially as described by Smiley et al. (Smiley, K. L., Jr, Berry, A. J., and Suelter, C. H. J. Biol. Chem. 1967, 242, 2502-2506) through the phosphocellulose step. Inhibition of AMPDA activity was determined at 37° C. in a 0.1 mL assay mixture containing inhibitor, ˜0.005U AMPDA, 0.1% bovine serum albumin, 10 mM ATP, 250 mM KCl, and 50 mM MOPS at pH 6.5. […]

rat hepatocytes [3] = assay: Inhibition of gluconeogenesis (glucose production from lactate/pyruvate) in rat hepatocytes; format: cell-based; details: for IC50: from lactate/pyruvate, isolated rat hepatocytes
Method: Hepatocytes were prepared from overnight fasted Sprague-Dawley rats (250-300 g) according to the procedure of Berry and Friend (Berry, M. N., Friend, D. S., J. Cell. Biol. 1969, 43, 506-520) as modified by Groen (Groen, […]., Eur. J. Biochem. 1982, 122, 87-93). […] Incubations were carried out in a 95% oxygen, 5% carbon dioxide atmosphere in closed, 50-mL Falcon tubes submerged in a rapidly shaking water bath (37° C.). After 1 hour, an aliquot (0.25 mL) was removed, transferred to an Eppendorf tube and centrifuged. 50 μl of supernatant was then assayed for glucose content using a Sigma Glucose Oxidase kit as per the manufacturer's instructions.

Human adenosine kinase = biological target: T5, Human adenosine kinase (Homo sapiens, UniProt P55263); assay: AMP site/enzyme selectivity: adenosine kinase; format: biochemical; details: selectivity table; read-out: Adenosine Kinase (inh.)
T5 construct: made in house; host or cells: E. coli
T5 sequence (P55263 1-345 isoform P55263-2): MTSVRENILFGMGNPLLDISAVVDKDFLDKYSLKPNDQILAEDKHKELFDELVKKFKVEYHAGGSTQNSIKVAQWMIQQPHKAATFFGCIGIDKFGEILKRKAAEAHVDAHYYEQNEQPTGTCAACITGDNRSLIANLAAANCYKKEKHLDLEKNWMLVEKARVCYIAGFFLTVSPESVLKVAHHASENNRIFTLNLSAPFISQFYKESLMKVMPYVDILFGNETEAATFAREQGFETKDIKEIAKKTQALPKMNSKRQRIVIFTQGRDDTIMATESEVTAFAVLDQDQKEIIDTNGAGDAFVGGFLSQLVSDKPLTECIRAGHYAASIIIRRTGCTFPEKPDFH

mouse liver FBPase = biological target: T6, mouse liver FBPase (Mus musculus, UniProt Q9QXD6); assay: In vitro inhibition of mouse liver FBPase; format: biochemical
T6 construct: This partially purified fraction was used for enzyme assays; from tissue; host or cells: mouse liver
T6 sequence (Q9QXD6 2-338 limits assumed): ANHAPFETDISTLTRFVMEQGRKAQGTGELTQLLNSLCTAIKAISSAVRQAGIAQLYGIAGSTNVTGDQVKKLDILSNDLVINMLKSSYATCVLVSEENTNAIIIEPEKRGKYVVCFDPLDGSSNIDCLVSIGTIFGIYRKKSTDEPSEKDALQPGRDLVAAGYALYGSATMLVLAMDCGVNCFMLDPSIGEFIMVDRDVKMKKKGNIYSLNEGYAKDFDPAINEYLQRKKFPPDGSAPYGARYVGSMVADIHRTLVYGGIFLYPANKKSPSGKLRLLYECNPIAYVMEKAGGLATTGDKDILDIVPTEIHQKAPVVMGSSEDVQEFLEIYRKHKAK
Method: as §1

[4] = tested on: 18 hours fasted Sprague-Dawley rats; assay: Blood glucose and liver fructose-1,6-bisphosphate accumulation in fasted rats; format: in vivo, rat; details: 20 mgs/kg intraperitoneally
rat hepatocytes [5] = assay: Gluconeogenesis from dihydroxyacetone in rat hepatocytes: glucose production and fructose 1,6-bisphosphate accumulation; format: cell-based
Method: Isolated rat hepatocytes were prepared as described in Example D and incubated under the identical conditions described except that lactate/pyruvate was replaced by 10 mM dihydroxyacetone, a substrate which feeds into the gluconeogenic pathway at a step just prior to FBPase. Reactions were terminated by removing an aliquot (250 μL) of cell suspension and spinning it through a layer of oil (0.8 mL silicone/mineral oil, 4/1) into a 10% perchloric acid layer (100 μL). […] After thorough mixing and centrifugation, the supernatant was analyzed for glucose content as described in Example D, and also for fructose-1,6-bisphosphate. Fructose-1,6-bisphosphate was assayed spectrophotometrically by coupling its enzymatic conversion to glycerol 3-phosphate to the oxidation of NADH, which was monitored at 340 nm. Reaction mixtures (1 mL) consisted of 200 mM Tris-HCl, pH 7.4, 0.3 mM NADH, 2 units/mL glycerol 3-phosphate dehydrogenase, 2 units/mL triosephosphate isomerase, and 50-100 μl cell extract. After a 30 minute preincubation at 37° C., 1 unit/mL of aldolase was added and the change in absorbance measured until a stable value was obtained. 2 moles of NADH are oxidized in this reaction per mole of fructose-1,6-bisphosphate present in the cell extract.

[6] = tested on: Zucker Diabetic Fatty rats; assay: Blood glucose lowering in Zucker Diabetic Fatty rats; format: in vivo, rat; details: 50 mg/kg intraperitoneal, 2 hours post dose, 24-hour fasted
Method: Zucker Diabetic Fatty rats purchased at 7 weeks of age were used at age 16 weeks in the 24-hour fasted state. The rats were purchased from Genetics Models Inc. and fed the recommended Purina 5008 diet (6.5% fat). Their fasting hyperglycemia at 24 hours ranged from 150 mg/dL to 310 mg/dL blood glucose.
The stock solution was made up at […] in deionized water and adjusted to neutrality by dropwise, addition of 5 N NaOH. 5 control animals were dosed with saline. Blood glucose was measured at the time of dosing and 2 hours post dose as described in Example F.

[7] = tested on: Zucker Diabetic Fatty rats; assay: Inhibition of gluconeogenesis (14C-bicarbonate incorporation into glucose) in Zucker Diabetic Fatty rats; format: in vivo, rat; details: 50 mg/kg intraperitoneal
Method: Blood samples (0.6 mL) were obtained by cardiac puncture 10 and 20 minutes post tracer injection. Blood (0.5 mL) was diluted into 6 mL deionized water and protein precipitated by addition of 1 mL zinc sulfate (0.3 N) and 1 mL barium hydroxide (0.3 N). The mixture was centrifuged (20 minutes, 1000×g) and 5 mL of the resulting supernatant was then combined with 1 g of a mixed bed ion exchange resin (1 part AG 50W-X8, 100-200 mesh, hydrogen form and 2 parts of AG 1-X8, 100-200 mesh, acetate form) to separate ^14C-bicarbonate from ^14C-glucose. The slurry was shaken at room temperature for four hours and then allowed to settle. An aliquot of the supernatant (0.5 mL) was then counted in 5 mL scintillation cocktail.

[8] = Analysis of drug levels in plasma and liver of rats; format: in vivo, rat; details: 20 mgs/kg intraperitoneally, one hour post injection
[9] = Estimation of the oral bioavailability of prodrugs of phosphonic acids (urinary recovery); format: in vivo, rat
Method: Prodrugs were dissolved in 10% ethanol/90% polyethylene glycol (mw 400) and administered by oral gavage at doses of approximately 20 or 40 mg/kg parent compound equivalents to 6-hour fasted, Sprague Dawley rats (220-240 g). The rats were subsequently placed in metabolic cages and urine was collected for 24 hours. The quantity of parent compound excreted into urine was determined by HPLC analysis. An ODS column eluted with a gradient from potassium phosphate buffer, pH 5.5 to acetonitrile was employed for these measurements. Detection was at 310-325 nm. […] Parent compounds were typically dissolved in dimethyl sulfoxide, and administered via the tail vein in animals that were briefly anesthetized with halothane.

[10] = tested on: 18 hours fasted Sprague Dawley rats; assay: Blood glucose lowering in fasted rats; format: in vivo, rat; details: 35, 45, and 60 mg/kg intraperitoneally, result in words
Method: The vehicle used for drug administration was dimethylsulfoxide. Blood samples were obtained from the tail vein of conscious animals just prior to injection and then at half-hourly intervals. Blood glucose was measured using a HemoCue Inc. glucose analyzer according to the instructions of the manufacturer.

rat hepatocytes [11] = details: 10 μM prodrug, within 10 minutes
Method: Rat hepatocytes were prepared and incubated as in Example D, except that the test compound, 16.4, was added to yield a final concentration of 10 μM. Aliquots of the cell suspension were taken at 0, 5, 10, 20, 30, 45, and 60 minutes after drug exposure.

Structure (SMILES): Nc1ncnc2c1nc(-c1ccc(P(=O)(O)O)o1)n2CCc1ccccc1 [Compound 2.1, N^9-(2-phenethyl)-8-(2-(5-phosphono)furanyl)adenine]
- IC50 (rat liver FBPase): 100 µM
- IC50 (human liver FBPase): 5 µM
- IC50 [1]: > 500 µM
- EC50 [2]: > 250 µM
- IC50 (rat hepatocytes [3]; Hepatocyte): 90 µM
- IC50 (Human adenosine kinase): > 10 µM
- IC50 (mouse liver FBPase): > 20 µM

Structure (SMILES): CC(C)(C)Cn1c(-c2ccc(P(=O)(O)O)o2)nc2c(N)ncnc21 [Compound 2.7, N^9-neopentyl-8-(2-(5-phosphono)furanyl)adenine]
- elevation of fructose-1,6-bisphosphate levels in liver ([4]; one hour post injection): 10 fold
- blood glucose after treatment ([4]; within one hour, lowered from 82±3): 28 ± 9.9 mg/dL
- IC50 (rat hepatocytes [5]; Hepatocyte, 10 mM dihydroxyacetone, rat hepatocytes): ~5 µM
- accumulation of fructose-1,6-bisphosphate in hepatocytes (FIG. 4B) (rat hepatocytes [5]; dihydroxyacetone, result in words): dose-dependent accumulation of fructose-1,6-bisphosphate
- IC50 [1]: > 500 µM
- blood glucose lowered, average [6]: ~20%
- reduction of incorporation of 14C-bicarbonate into glucose [7]: 75%
- IC50 (rat hepatocytes [3]; Hepatocyte): 4.5 µM
- drug level in liver [8]: 51.3 ± 10 nmol/g
- concentration at 1 h ([8]; Sprague-Dawley, rat, plasma, ip, 20 mg/kg, read-out: drug level in plasma): 38.5 ± 7 µM
- intravenous dose recovered in urine ([9]; intravenous, approximately 10 mg/kg, 24 hours urine): 76.8%

Structure (SMILES): CC(C)C(=O)OCOP(=O)(OCOC(=O)C(C)C)c1ccc(-c2nc3c(N)ncnc3n2CC(C)(C)C)o1 [Compound 16.4, 6-Amino-9-neopentyl-8-(2-(5-diisobutyrylmethylphosphono)furanyl)-purine]
- blood glucose lowering (FIG. 6) [10]: profound glucose lowering
- IC50 (rat hepatocytes [3]): 3 µM
- glucose production in rat hepatocytes (FIG. 11B) (rat hepatocytes [3]; result in words): inhibited glucose production
- oral dose recovered in urine (as parent compound) ([9]; oral, approximately 20 mg/kg, 24 hours urine): 6.2%
- oral bioavailability ([9]; rat, estimated from urinary recovery vs intravenous parent): approximately 8%
- intracellular concentration of compound 2.7 (rat hepatocytes [11]): approximately 80 nmoles/g
